From patent publication US10202371B2, “Oxazolidin-2-one-pyrimidine derivatives and the use thereof as phosphatidylinositol-3-kinase inhibitors” (Novartis AG, priority 2012, dated 2019) come the findings set out here.

A word on the IC50: it is the concentration at which inhibition is half-maximal.

The structures appear in SMILES notation. Like-named read-outs stand apart in the source and are kept apart here.

In this assay the test system is HaCaT keratinocyte cell line. Kind of assay: BrdU cell proliferation assay HaCaT keratinocytes. Type of assay: cell-based. The following applies: Homo sapiens, BrdU incorporation. How it is done: Cells of SCC or keratinocyte lines (Detroit562, SCC12B2, SCL1, HaCaT) were used for the proliferation assays when they had reached about 80% to 90% confluency. Cells were then harvested after trypsin-mediated dislodgement from culture flasks, washed in culture medium containing 10% FCS, counted in a hemocytometer and diluted complete culture medium with 5% FCS to obtain a cell density of 5×10^4 cells/ml. 100 μl of this cell suspension (e.g. 5000 cells) were transferred into each well of a 96-well white walled tissue culture plate (Corning-Costar article #3917). Cells were then allowed to settle by placing them in the CO2 incubator for 45 to 60 minutes. Subsequently, a volume of 100 μl of culture medium containing twice the desired final concentration of the test compound was added to each well of quadruplicate wells. […] The cell proliferation was determined on the basis of incorporation of bromodesoxy-uridin (BrdU) into cellular DNA using the chemiluminescent BrdU Cell Proliferation ELISA (Roche article #11 669 915 001). […] Incorporation of BrdU into the DNA was detected by BrdU-specific antibodies and quantified on the basis of an antibody-coupled luciferase mediated signal generation. The luminescence emission was measured in a Victor light 1420 Luminescence counter, (Perkin Elmer) and expressed as relative luminescence units (e.g. data points given as RLU/s) per second. […]
On the technique in general: Uptake of a labelled nucleoside into DNA is a usual measure of proliferation.

As for `C[C@H]1[C@H](c2nccs2)OC(=O)N1c1cc(-c2cnc(N)nc2C(F)(F)F)nc(N2CCOCC2)n1` [Example 1, (4S,5R)-3-(2′-Amino-2-morpholin-4-yl-4′-trifluoromethyl-[4,5′]bipyrimidinyl-6-yl)-4-methyl-5-thiazol-2-yl-oxazolidin-2-one], the IC50 runs as follows: (measurement #1, read-out: anti-proliferative IC50 HaCaT measurement #1) 282 nM; (measurement #2, read-out: anti-proliferative IC50 HaCaT measurement #2) 298 nM.
